According to patent US5789434A, “Derivatives of substituted 4-biarylbutyric acid as matrix metalloprotease inhibitors” (priority 1995, dated 1998):

How the values were obtained:
Assay type in all cases: biochemical
MMP-9 = biological target: T1, MMP-9 (Homo sapiens, UniProt P14780); test: Automated MMP Profiling Assay, MMP-9 fluorogenic; conditions: for IC50: 96-well automated, P218
T1 construct: from tissue; host or cells: human polymorphonuclear leukocytes (PMN) from whole blood (New York Blood Center), PMA-stimulated supernatant

MMP-3 = biological target: T2, MMP-3 (Homo sapiens, UniProt P08254); test: Automated MMP Profiling Assay, MMP-3 fluorogenic; conditions: for IC50: 96-well automated, P218
T2 construct: Truncated Prostromelysin-257 was expressed in a soluble form in E.coli; made in house; host or cells: E. coli
Excerpt: This assay with each invention compound was run with the three enzymes MMP-3, MMP-9 and MMP-2 in parallel as adapted for a 96-well microtitre plate using a Hamilton A® workstation.

MMP-2 = biological target: T3, MMP-2 (Homo sapiens, UniProt P08253); test: Automated MMP Profiling Assay, MMP-2 fluorogenic; conditions: for IC50: 96-well automated, P218, read-out: MMP-2 Fluorogenic IC50 (profiling)
T3 sequence (P08253 110-660): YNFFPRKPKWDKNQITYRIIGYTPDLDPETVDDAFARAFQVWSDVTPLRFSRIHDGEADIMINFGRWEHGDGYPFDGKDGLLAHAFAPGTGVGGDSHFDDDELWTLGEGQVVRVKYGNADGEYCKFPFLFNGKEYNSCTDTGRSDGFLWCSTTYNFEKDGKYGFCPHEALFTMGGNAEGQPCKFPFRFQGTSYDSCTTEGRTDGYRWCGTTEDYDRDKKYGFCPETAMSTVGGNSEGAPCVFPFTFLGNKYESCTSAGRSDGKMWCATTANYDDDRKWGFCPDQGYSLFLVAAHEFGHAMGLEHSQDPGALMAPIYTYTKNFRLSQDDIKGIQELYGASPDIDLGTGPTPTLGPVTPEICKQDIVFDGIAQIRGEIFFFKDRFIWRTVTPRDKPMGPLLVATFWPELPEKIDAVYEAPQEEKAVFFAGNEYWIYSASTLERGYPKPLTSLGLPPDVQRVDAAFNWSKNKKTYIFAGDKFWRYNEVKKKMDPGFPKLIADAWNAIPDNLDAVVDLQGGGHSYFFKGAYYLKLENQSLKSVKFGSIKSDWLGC

T1 sequence (P14780 107-707 limits assumed): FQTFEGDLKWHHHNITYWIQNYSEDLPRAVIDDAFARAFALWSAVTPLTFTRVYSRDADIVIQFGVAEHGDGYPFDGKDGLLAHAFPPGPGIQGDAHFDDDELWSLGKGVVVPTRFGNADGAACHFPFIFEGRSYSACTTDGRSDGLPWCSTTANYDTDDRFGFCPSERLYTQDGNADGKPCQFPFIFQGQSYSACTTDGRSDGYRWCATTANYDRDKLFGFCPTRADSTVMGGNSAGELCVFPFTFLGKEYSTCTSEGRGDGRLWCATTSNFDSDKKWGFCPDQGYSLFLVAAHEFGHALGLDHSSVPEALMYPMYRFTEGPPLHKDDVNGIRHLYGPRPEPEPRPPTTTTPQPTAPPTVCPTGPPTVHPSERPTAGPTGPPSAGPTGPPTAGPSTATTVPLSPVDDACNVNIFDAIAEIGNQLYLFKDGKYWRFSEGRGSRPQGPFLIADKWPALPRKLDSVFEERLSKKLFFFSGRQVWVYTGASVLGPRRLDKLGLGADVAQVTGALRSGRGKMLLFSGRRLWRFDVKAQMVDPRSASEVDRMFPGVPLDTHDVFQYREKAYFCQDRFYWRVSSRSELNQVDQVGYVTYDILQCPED
T2 sequence (P08254 100-274 limits assumed): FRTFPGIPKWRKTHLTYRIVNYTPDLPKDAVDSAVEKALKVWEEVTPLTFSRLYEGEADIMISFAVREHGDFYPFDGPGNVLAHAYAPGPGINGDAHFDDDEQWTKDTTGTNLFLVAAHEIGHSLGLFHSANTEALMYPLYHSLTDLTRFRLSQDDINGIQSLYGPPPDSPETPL

Row | SMILES | IC50 (MMP-9) | IC50 (MMP-3) | IC50 (MMP-2) | inhibition at 5 µM (MMP-9) | inhibition at 5 µM (MMP-3) | inhibition at 5 µM (MMP-2)
1 | O=C(O)[C@H]1[C@H](CN2C(=O)c3cc(Cl)c([N+](=O)[O-])cc3C2=O)CC[C@@H]1C(=O)c1ccc(-c2ccc(Cl)cc2)cc1 (relative stereo) [Example 390, Cyclopentanecarboxylic acid, 2-[(4'-chloro[1,1'-biphenyl]-4-yl)carbonyl]-5-[(5-chloro-1,3-dihydro-6-nitro-1,3-dioxo-2H-isoindol-2-yl)methyl]-, (1α,2β,5β)-] | 1.2 nM | 10 nM | 15 nM | – | – | –
2 | O=C(O)[C@H]1[C@H](CN2C(=O)c3cc(Cl)c(Cl)cc3C2=O)CC[C@@H]1C(=O)c1ccc(-c2ccc(Cl)cc2)cc1 (relative stereo) [Example 391, Cyclopentanecarboxylic acid, 2-[(4'-chloro[1,1'-biphenyl]-4-yl)carbonyl]-5-[(5,6-dichloro-1,3-dihydro-1,3-dioxo-2H-isoindol-2-yl)methyl]-, (1α,2β,5β)-] | 4.2 nM | 19 nM | 14 nM | – | – | –
3 | CC(=O)O[C@H]1C[C@@H](C(=O)c2ccc(-c3ccc(Cl)cc3)cc2)[C@H]1C(=O)O (relative stereo) [Example 393, Cyclobutanecarboxylic acid, 2-(acetyloxy)-4-[(4'-chloro[1,1'-biphenyl]-4-yl)carbonyl]-, (1α,2α,4α)-] | – | – | 2000 nM | 38% | 18% | –
4 | CC(=O)O[C@@H]1C[C@@H](C(=O)c2ccc(-c3ccc(Cl)cc3)cc2)[C@H]1C(=O)O (relative stereo) [Example 394, Cyclobutanecarboxylic acid, 2-(acetyloxy)-4-[(4'-chloro[1,1'-biphenyl]-4-yl)carbonyl]-, (1α,2β,4α)-] | – | – | 2000 nM | 15% | 26% | –
5 | CC(=O)O[C@H]1C[C@H](C(=O)c2ccc(-c3ccc(Cl)cc3)cc2)[C@H]1C(=O)O (relative stereo) [Example 395, Cyclobutanecarboxylic acid, 2-(acetyloxy)-4-[(4'-chloro[1,1'-biphenyl]-4-yl)carbonyl]-, (1α,2α,4β)-] | – | 2200 nM | 560 nM | 44% | – | –
6 | CC(=O)O[C@@H]1C[C@H](C(=O)c2ccc(-c3ccc(Cl)cc3)cc2)[C@H]1C(=O)O (relative stereo) [Example 396, Cyclobutanecarboxylic acid, 2-(acetyloxy)-4-[(4'-chloro[1,1'-biphenyl]-4-yl)carbonyl]-, (1α,2β,4β)-] | 2290 nM | 779 nM | 362 nM | – | – | –
7 | CC(=O)OC[C@@H]1C[C@@H](C(=O)c2ccc(-c3ccc(Cl)cc3)cc2)[C@H]1C(=O)O (relative stereo) [Example 397, Cyclobutanecarboxylic acid, 2-[(acetyloxy)methyl]-4-[(4'-chloro[1,1'-biphenyl]-4-yl)carbonyl]-, (1α,2β,4α)-] | – | 3200 nM | 750 nM | 40% | – | –
8 | O=C(O)[C@@H]1[C@@H](CN2C(=O)c3ccccc3C2=O)OC[C@H]1C(=O)c1ccc(-c2ccc(Cl)cc2)cc1 (relative stereo) [Example 403, 3-Furancarboxylic acid, 4-[(4'-chloro[1,1'-biphenyl]-4-yl)carbonyl]-2-[(1,3-dihydro-1,3-dioxo-2H-isoindol-2-yl)methyl]tetrahydro-, (2α,3β,4α)-] | 5.7 nM | 17 nM | 6.4 nM | – | – | –
9 | O=C(O)[C@H]1[C@@H](SCc2ccccc2)CC[C@@H]1C(=O)c1ccc(-c2ccc(Cl)cc2)cc1 (relative stereo) [Example 440, Cyclopentanecarboxylic acid, 2-[(4'-chloro[1,1'-biphenyl]-4-yl)carbonyl]-5-[(phneylmethyl)thio]-, (1α,2β,5α)-] | 380 nM | 58 nM | 43 nM | – | – | –
10 | O=C(O)[C@@H]1[C@@H](C(=O)c2ccc(-c3ccc(Cl)cc3)cc2)CC[C@H]1SCc1ccccc1 (relative stereo) [Example 441, Cyclopentanecarboxylic acid, 2-[(4'-chloro[1,1'-biphenyl]-4-yl)carbonyl]-5-[(phenylmethyl)thio]-, (1α,2β,5β)-] | 149 nM | 38 nM | 27 nM | – | – | –
11 | O=C(CC(CCNC(=O)c1ccccc1C(=O)O)C(=O)O)c1ccc(-c2ccc(Cl)cc2)cc1 (single isomer, unassigned) [Example 280, [1,1'-Biphenyl]-4-butanoic acid, α-[2-[(2-carboxybenzoyl)amino]ethyl]-4'-chloro-γ-oxo-] | 66 nM | 146 nM | 29 nM | – | – | –
12 | CCCCCOc1ccc(-c2ccc(C(=O)[C@H]3CC[C@@H](Sc4ccccc4)[C@@H]3C(=O)O)cc2)cc1 (single isomer, unassigned) [Example 319, Cyclopentanecarboxylic acid, 2-[[4'-(pentyloxy)[1,1'-biphenyl]-4-yl]carbonyl]-5-(phenylthio)-, (1α,2β,5β)-(+)-] | 197 nM | 30 nM | 4.1 nM | – | – | –
13 | CCCCCOc1ccc(-c2ccc(C(=O)[C@H]3CC[C@@H](Sc4ccccc4)[C@@H]3C(=O)O)cc2)cc1 (single isomer, unassigned) [Example 320, Cyclopentanecarboxylic acid, 2-[[4'-(pentyloxy)[1,1'-biphenyl]-4-yl]carbonyl]-5-(phenylthio)-, (1α,2β,5β)-(-)-] | – | – | – | 6% | 6% | 24%
14 | O=C(CC(CCCc1ccccc1)C(=O)O)c1ccc(-c2ccc(C(=O)O)o2)cc1 (stereo not drawn) [Example 69, 2-Furancarboxylic acid, 5-[4-(3-carboxy-1-oxo-6-phenylhexyl)phenyl]-] | – | – | – | 0% | 0% | 0%
15 | O=C(CC(CCCc1ccccc1)C(=O)O)c1ccc(-c2cccnc2)cc1 (stereo not drawn) [Example 70, Benzenepentanoic acid, α-[2-oxo-2-[4-(3-pyridinyl)phenyl]ethyl]-] | – | – | 1750 nM | 7% | 44% | –
16 | CCCCCOc1ccc(-c2ccc(C(=O)CC(CCCc3ccccc3)C(=O)O)cc2)cn1 (stereo not drawn) [Example 71, Benzenepentanoic acid, α-[2-oxo-2-[4-[6-(pentyloxy)-3-pyridinyl]phenyl]ethyl]-] | – | 1160 nM | 969 nM | 24% | – | –
17 | CCCCCSc1ccc(-c2ccc(C(=O)CC(CCCc3ccccc3)C(=O)O)cc2)cc1 (stereo not drawn) [Example 72, [1,1'-Biphenyl]-4-butanoic acid, γ-oxo-4'-(pentylthio)-α-(3-phenylpropyl)-] | – | 409 nM | 90 nM | 22% | – | –
18 | CCCCCOc1ccc(-c2ccc(C(=O)C[C@@H](CCCc3ccccc3)C(=O)O)cc2)cc1 [Example 87, 4-[4-(4-pentyloxyphenyl)phenyl]-4-oxo-2R-(3-phenylpropyl)butanoic acid] | – | – | – | 0% | 8% | 40%
19 | O=C(CC(CCCc1ccccc1)C(=O)O)c1ccc(-c2ccc(OCC3CCCCC3)cc2)cc1 (stereo not drawn) [Example 93, [1,1'-Biphenyl]-4-butanoic acid, 4'-(cyclohexylmethoxy)-γ-oxo-α-(3-phenylpropyl)-] | > 1250 nM | 129 nM | 36 nM | – | – | –
20 | CC(C)COc1ccc(-c2ccc(C(=O)CC(CCCc3ccccc3)C(=O)O)cc2)cc1 (stereo not drawn) [Example 94, [1,1'-Biphenyl]-4-butanoic acid, 4'-(2-methylpropoxy)-γ-oxo-α-(3-phenylpropyl)-] | 1850 nM | 224 nM | 155 nM | – | – | –
21 | C=CCOc1ccc(-c2ccc(C(=O)CC(CCCc3ccccc3)C(=O)O)cc2)cc1 (stereo not drawn) [Example 95, [1,1'-Biphenyl]-4-butanoic acid, γ-oxo-α-(3-phenylpropyl)-4'-(2-propenyloxy)-] | 77 nM | 79 nM | 26 nM | – | – | –
22 | CC(C)CCOc1ccc(-c2ccc(C(=O)CC(CCCc3ccccc3)C(=O)O)cc2)cc1 (stereo not drawn) [Example 96, [1,1'-Biphenyl]-4-butanoic acid, 4'-(3-methylbutoxy)-γ-oxo-α-(3-phenylpropyl)-] | > 1250 nM | 232 nM | 72 nM | – | – | –
23 | O=C(CC(CCCc1ccccc1)C(=O)O)c1ccc(-c2ccc(OCC3CC3)cc2)cc1 (stereo not drawn) [Example 97, [1,1'-Biphenyl]-4-butanoic acid, 4'-(cyclopropylmethoxy)-γ-oxo-α-(3-phenylpropyl)-] | 229 nM | 153 nM | 48 nM | – | – | –
24 | O=C(CC(CCCc1ccccc1)C(=O)O)c1ccc(-c2ccc(OCc3ccccc3)cc2)cc1 (stereo not drawn) [Example 99, 4-[4-(4-benzyloxyphenyl)phenyl]-4-oxo-2-(3-phenylpropyl)butanoic acid] | 835 nM | 36 nM | 26 nM | – | – | –
25 | O=C(C[C@@H](CCCc1ccccc1)C(=O)O)c1ccc(-c2ccc(OCc3ccccc3)cc2)cc1 [Example 101, 4-[4-(4-benzyloxyphenyl)phenyl]-4-oxo-2R-(3-phenylpropyl)butanoic acid] | – | – | 3320 nM | 10% | 45% | –
